The record followed here is ChEMBL document CHEMBL4138253, “Synthesis and Biological Evaluation of a Series of Bile Acid Derivatives as FXR Agonists for Treatment of NASH” (ACS Med Chem Lett, 2017).

By EC50 is commonly meant the concentration that produces a half-maximal response. For orientation: AUC means concentration integrated over time. One may read the Cmax as the highest concentration seen after dosing. What is called Tmax is the time at which the peak concentration occurs. What is called Kp is tissue or fluid exposure divided by exposure in the circulation.

For data set [1], the target named is T1, Bile acid receptor (Homo sapiens, UniProt Q96RI1).
T1 sequence (Q96RI1 whole entry): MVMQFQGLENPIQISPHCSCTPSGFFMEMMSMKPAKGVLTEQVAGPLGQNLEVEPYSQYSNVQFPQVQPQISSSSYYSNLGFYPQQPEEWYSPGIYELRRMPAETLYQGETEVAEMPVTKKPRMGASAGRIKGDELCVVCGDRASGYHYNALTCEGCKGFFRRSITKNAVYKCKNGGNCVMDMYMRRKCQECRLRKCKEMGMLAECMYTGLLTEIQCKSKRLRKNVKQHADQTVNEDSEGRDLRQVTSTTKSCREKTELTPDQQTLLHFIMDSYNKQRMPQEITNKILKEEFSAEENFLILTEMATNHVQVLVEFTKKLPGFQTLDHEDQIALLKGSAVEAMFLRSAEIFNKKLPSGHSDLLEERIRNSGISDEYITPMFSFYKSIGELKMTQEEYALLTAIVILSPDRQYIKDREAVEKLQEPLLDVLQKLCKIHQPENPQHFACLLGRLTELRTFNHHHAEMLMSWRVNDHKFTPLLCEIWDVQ
Briefly: Agonist activity at recombinant human GST-tagged FXR LBD (193 to 472 residues) expressed in baculovirus-infected insect cells assessed as recruitment of biotinylated SRC1 peptide measured after 1 hr by Alphascreen assay. Background: Bead proximity is the source of the signal in Alpha formats.

For data set [2], the target named is T2, Bile acid receptor (Homo sapiens) (UniProt Q96RI1).
T2 sequence (whole entry): T1 sequence (Q96RI1 whole entry)
Nature of the data set: Agonist activity at recombinant human GST-tagged FXR LBD (193 to 472 residues) expressed in baculovirus-infected insect cells assessed as recruitment of biotinylated SRC1 peptide measured after 1 hr by Alphascreen assay relative to CDCA.

Data set [3] deals with T1, Bile acid receptor. Nature of the data set: Agonist activity at FXR (unknown origin) measured after 16 hrs in presence of CCF4-AM dye by cell-based GeneBlazer FRET assay.
For data set [4], the target named is T2, Bile acid receptor (Homo sapiens). Nature of the data set: Agonist activity at FXR (unknown origin) measured after 16 hrs in presence of CCF4-AM dye by cell-based GeneBlazer FRET assay relative to CDCA.
Data set [5] concerns the target T3, G-protein coupled bile acid receptor 1 (Homo sapiens, UniProt Q8TDU6).
T3 sequence (Q8TDU6 whole entry): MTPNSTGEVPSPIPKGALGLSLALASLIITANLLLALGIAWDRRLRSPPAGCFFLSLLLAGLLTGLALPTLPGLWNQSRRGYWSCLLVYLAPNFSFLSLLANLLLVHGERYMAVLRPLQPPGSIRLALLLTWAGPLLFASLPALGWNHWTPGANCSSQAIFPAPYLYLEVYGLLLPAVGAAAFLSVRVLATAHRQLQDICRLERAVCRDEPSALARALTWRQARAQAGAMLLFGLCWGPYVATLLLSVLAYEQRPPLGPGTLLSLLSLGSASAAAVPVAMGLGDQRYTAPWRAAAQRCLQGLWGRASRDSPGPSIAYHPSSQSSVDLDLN
Nature of the data set: Agonist activity at human TGR5 expressed in HEK293 cells assessed as increase in intracellular cAMP level after 1 hr by TR-FRET assay. In kind it is functional, cell-based.

Data set [6] is filed under the species Homo sapiens. Nature of the data set: Selectivity ratio of EC50 for recombinant human GST-tagged FXR LBD (193 to 472 residues) expressed in baculovirus-infected insect cells to EC50 for human TGR5 expressed in HEK293 cells.
The subject of data set [7] is Mus musculus. Nature of the data set: Anti-hepatic steatosis activity in HFD/CCl4-induced non-alcoholic hepatic steatosis C57BL/6 mouse model assessed as reduction in liver fibrosis at 30 mg/kg, po administered once daily via gavage for 28 days measured at post last dose by sirus red staining based assay. In kind it is ADME, organism-based. To be noted: in vivo, 672 h.

Data set [8] has as its system Mus musculus. Briefly: Anti-hepatic steatosis activity in HFD/CCl4-induced non-alcoholic hepatic steatosis C57BL/6 mouse model assessed as reduction in hepatic steatosis score at 30 mg/kg, po administered once daily via gavage for 28 days measured at post last dose by hematoxylin-eosin staining based assay. In kind it is ADME, organism-based. To be noted: in vivo, 672 h.

Data set [9] is described as follows: Drug level in C57BL/6 mouse liver at 2 mg/kg, po administered as single cassette dose via gavage measured at 0.5 hrs post dose by LC-MS/MS analysis. In kind it is ADME, organism-based. To be noted: in vivo.
The nature of data set [10]: Drug level in C57BL/6 mouse liver at 2 mg/kg, po administered as single cassette dose via gavage measured at 3 hrs post dose by LC-MS/MS analysis. In kind it is ADME, organism-based. To be noted: in vivo.
The nature of data set [11]: Drug level in C57BL/6 mouse plasma at 2 mg/kg, po administered as single dose via gavage measured at 0.5 hrs post dose by LC-MS/MS analysis. In kind it is ADME, organism-based.
A short description of data set [12]: Drug level in C57BL/6 mouse plasma at 2 mg/kg, po administered as single cassette dose via gavage measured at 3 hrs post dose by LC-MS/MS analysis. It counts as ADME, organism-based.
The nature of data set [13]: AUC in C57BL/6 mouse at 10 mg/kg, po administered via gavage. In kind it is ADME, organism-based. To be noted: in vivo.
The subject of data set [14] is Mus musculus. Briefly: AUC in C57BL/6 mouse assessed as glyco-INT-747 level at 10 mg/kg, po administered via gavage. It counts as ADME, organism-based. To be noted: in vivo, BLD = below limit of detection.
Data set [15] relates to Mus musculus. Nature of the data set: AUC in C57BL/6 mouse assessed as tauro-INT-747 level at 10 mg/kg, po administered via gavage. It counts as ADME, organism-based. To be noted: in vivo.
Data set [16] in a line: Cmax in C57BL/6 mouse at 10 mg/kg, po administered via gavage. To be noted: in vivo. More on the design: dose 10 mg/kg, route oral. It counts as ADME, organism-based.
Data set [17] deals with Mus musculus. Briefly: Cmax in C57BL/6 mouse assessed as glyco-INT-747 level at 10 mg/kg, po administered via gavage. It counts as ADME, organism-based. More on the design: dose 10 mg/kg, route oral. To be noted: in vivo, BLD = below limit of detection.
Data set [18] has as its system Mus musculus. Briefly: Cmax in C57BL/6 mouse assessed as tauro-INT-747 level at 10 mg/kg, po administered via gavage. In kind it is ADME, organism-based. More on the design: dose 10 mg/kg, route oral. To be noted: in vivo.
Data set [19] in a line: Tmax in C57BL/6 mouse at 10 mg/kg, po administered via gavage. In kind it is ADME, organism-based. To be noted: in vivo.
Data set [20] in a line: Drug level in C57BL/6 mouse liver at 10 mg/kg, po administered as single dose via gavage measured at 0.5 hrs post dose by LC-MS/MS analysis. It counts as ADME, organism-based. To be noted: in vivo.
Data set [21] concerns Mus musculus. Briefly: Tmax in C57BL/6 mouse assessed as tauro-INT-747 level at 10 mg/kg, po administered via gavage. It counts as ADME, organism-based. To be noted: in vivo.
The nature of data set [22]: Drug level in C57BL/6 mouse liver at 10 mg/kg, po administered as single dose via gavage measured at 3 hrs post dose by LC-MS/MS analysis. In kind it is ADME, organism-based. To be noted: in vivo.
Data set [23] is described as follows: Drug level in C57BL/6 mouse plasma at 10 mg/kg, po administered as single dose via gavage measured at 0.5 hrs post dose by LC-MS/MS analysis. In kind it is ADME, organism-based.
A short description of data set [24]: Drug level in C57BL/6 mouse plasma at 10 mg/kg, po administered as single dose via gavage measured at 3 hrs post dose by LC-MS/MS analysis. It counts as ADME, organism-based.
Data set [25] has as its system Mus musculus. Nature of the data set: Anti-hepatic steatosis activity in HFD/CCl4-induced non-alcoholic hepatic steatosis C57BL/6 mouse model assessed as reduction in triglyceride level at 30 mg/kg, po administered once daily via gavage for 28 days measured at post last dose by […] assay. To be noted: in vivo, 672 h. In kind it is ADME, organism-based.

A short description of data set [26]: Ratio of drug level in liver to plasma in C57BL/6 mouse at 2 mg/kg, po administered as single cassette dose via gavage measured at 0.5 hrs post dose. In kind it is ADME, organism-based.
Data set [27] in a line: Ratio of drug level in liver to plasma in C57BL/6 mouse at 2 mg/kg, po administered as single cassette dose via gavage measured at 3 hrs post dose. In kind it is ADME, organism-based.

In the case of `CCOC(=O)NCC[C@@H](C)[C@H]1CC[C@H]2[C@@H]3[C@H](O)[C@H](CC)[C@@H]4C[C@H](O)CC[C@]4(C)[C@H]3CC[C@]12C`, the EC50 in data set [1] was 280 nM; in data set [3], 100 nM; in data set [5] it was 280 nM. For the same molecule, the Efficacy came out at 138% in [2] and 174% in [4]. Moreover, the Ratio EC50 in data set [6] came to 1.

With `CC[C@H]1[C@@H](O)[C@@H]2[C@H](CC[C@]3(C)[C@@H]([C@H](C)CCC(=O)O)CC[C@@H]23)[C@@]2(C)CC[C@@H](O)C[C@@H]12` [OBETICHOLIC ACID], the result in [7], in [8] and in data set [25] was Active. Moreover, the Drug uptake was 711 nmol/kg in data set [9], 625 nmol/kg in [10], 1723 nmol/kg in data set [20] and 111 nmol/kg in [22]. For the same molecule, the concentration at 0.5 h stood at 151 nM in [11] and 478 nM in data set [23]. For the same molecule, the concentration at 3 h was found to be 64 nM in data set [12] and 10 nM in data set [24]. Moreover, the AUC was 0.713 µM·h in [13], “Bld” in [14] and 18.059 µM·h in data set [15]. The Cmax was 1540 nM in data set [16], “Bld” in data set [17] and 838 nM in [18]. Besides, the Tmax in [19] was 15 min; in [21], 480 min.

Regarding `CC[C@H]1[C@@H](O)[C@@H]2[C@H](CC[C@]3(C)[C@@H]([C@H](C)CCNC(=O)O[C@H]4CCOC4)CC[C@@H]23)[C@@]2(C)CC[C@@H](O)C[C@@H]12`, the EC50 in data set [1] is 90 nM; in [3], 80 nM; in data set [5] it was 240 nM. The Efficacy is 109% in data set [2] and 167% in [4]. Also, in data set [6], the Ratio EC50 is 3.

As for `CC[C@H]1[C@@H](O)[C@@H]2[C@H](CC[C@]3(C)[C@@H]([C@H](C)CCNC(=O)C(=O)O)CC[C@@H]23)[C@@]2(C)CC[C@@H](O)C[C@@H]12`, the EC50 came out at 20 nM in [1] and 240 nM in data set [5]. In data set [2], the Efficacy was 109%. Besides, the Ratio EC50 in data set [6] turned out to be 12. Besides, the Drug uptake in data set [9] came out at 277 nmol/kg; in [10] it was 1363 nmol/kg. In data set [11], this molecule gave a concentration at 0.5 h of 21 nM. In addition, the concentration at 3 h in data set [12] was determined as 38 nM. The partition ratio (Kp) at 0.5 h in data set [26] came out at 13. In addition, in data set [27], the Kp at 3 h is 36.

`CC[C@H]1[C@@H](O)[C@@H]2[C@H](CC[C@]3(C)[C@@H]([C@H](C)CCc4nnn[nH]4)CC[C@@H]23)[C@@]2(C)CC[C@@H](O)C[C@@H]12`: the EC50 in data set [1] is 60 nM; in data set [5], 1770 nM. Also, the Drug uptake in [9] turned out to be 5693 nmol/kg; in data set [10] it was 1443 nmol/kg. The molecule further registered a concentration at 0.5 h in data set [11] of 868 nM. Besides, the concentration at 3 h in data set [12] was 19 nM. The concentration ratio (Kp) at 0.5 h in [26] came to 7. Further, in data set [27], the Kp at 3 h was 76.

For `CC[C@H]1[C@@H](O)[C@@H]2[C@H](CC[C@]3(C)[C@@H]([C@H](C)CCc4cc(O)no4)CC[C@@H]23)[C@@]2(C)CC[C@@H](O)C[C@@H]12`, the EC50 came to 30 nM in [1] and 520 nM in data set [5]. In addition, the Efficacy in [2] worked out at 121%. The Ratio EC50 in data set [6] stood at 17. Besides, the Drug uptake in data set [9] came to 1896 nmol/kg; in [10], 257 nmol/kg. Besides, the concentration at 0.5 h in data set [11] was 43 nM. This molecule showed a concentration at 3 h in [12] of 6 nM. Moreover, the partition ratio (Kp) at 0.5 h in data set [26] amounted to 44. In addition, in data set [27], the partition ratio (Kp) at 3 h was 43.
